Source: patent publication US20250302815A1, “PROTEIN TYROSINE PHOSPHATASE TARGETING LIGANDS” (CALICO LIFE SCIENCES LLC, priority 2021, published 2025)

Tests used:
[1] = biological target: T1, PTPN2 (HiBIT-PTPN2 in 293T.109 cells) (Homo sapiens, UniProt P17706); assay: HiBiT Degradation 293T.109 PTPN2 (Nano-Glo HiBiT Lytic Assay); assay type: cell-based; conditions: 24.0 hours
T1 construct: expressed in transfected cells; host or cells: 293T.109 (293T WT from ATCC)
T1 sequence (P17706 1-415): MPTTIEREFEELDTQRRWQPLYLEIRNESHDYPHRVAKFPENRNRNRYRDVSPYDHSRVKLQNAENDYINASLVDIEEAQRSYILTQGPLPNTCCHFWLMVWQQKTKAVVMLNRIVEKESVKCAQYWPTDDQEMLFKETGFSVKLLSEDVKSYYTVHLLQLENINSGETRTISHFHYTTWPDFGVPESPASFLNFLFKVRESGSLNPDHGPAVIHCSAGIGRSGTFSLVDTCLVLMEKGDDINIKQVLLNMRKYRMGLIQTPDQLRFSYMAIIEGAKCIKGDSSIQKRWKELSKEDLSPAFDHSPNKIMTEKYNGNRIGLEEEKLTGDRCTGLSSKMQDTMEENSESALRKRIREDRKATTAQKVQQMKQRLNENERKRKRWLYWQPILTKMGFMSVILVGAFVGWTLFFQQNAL
Outline: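 Degradation read-out: lytic HiBiT luminescence after 24 h treatment (37 °C, 5% CO2) of 5000 293T cells per well expressing HiBiT-fused PTPN2 from an N-terminal tag. Dosing was 11 points, half-log steps down from 10 μM, in duplicate; vehicle-treated and no-reagent wells served as controls.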

PTPN2 (B16F10.4 cells) = biological target: T2, PTPN2 (B16F10.4 cells) (Mus musculus, UniProt Q06180); assay: HiBiT Degradation B16F10.4 PTPN2; assay type: cell-based; conditions: 24.0 hours
T2 construct: HiBiT; host or cells: B16F10.4
T2 sequence (Q06180 1-406): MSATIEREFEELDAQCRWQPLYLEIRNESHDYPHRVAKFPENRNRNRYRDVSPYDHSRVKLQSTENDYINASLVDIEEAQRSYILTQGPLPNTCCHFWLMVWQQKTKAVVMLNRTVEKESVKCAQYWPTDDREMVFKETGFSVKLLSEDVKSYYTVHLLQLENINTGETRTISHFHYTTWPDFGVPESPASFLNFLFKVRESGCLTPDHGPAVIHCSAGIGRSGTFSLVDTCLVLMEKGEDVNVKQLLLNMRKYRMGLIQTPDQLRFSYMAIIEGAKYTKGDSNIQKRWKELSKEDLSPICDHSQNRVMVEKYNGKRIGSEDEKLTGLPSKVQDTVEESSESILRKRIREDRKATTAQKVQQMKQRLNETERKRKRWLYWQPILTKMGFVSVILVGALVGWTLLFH

Row | Compound | DC50 [1] [nM] | DC50 (PTPN2 (B16F10.4 cells)) [nM]
1 | Cn1c(=O)n(C2CCC(=O)NC2=O)c2ccc(C3CCN(C(=O)Nc4cccc(CS(=O)(=O)N5CC[C@H](Oc6cccc(-c7sc(C(=O)O)c(OCC(=O)O)c7Cl)c6)CC5(C)C)c4)CC3)cc21 (stereo partly drawn) [Example 225, 3-(carboxymethoxy)-4-chloro-5-(3-(((4S)-1-((3-(4-(1-(2,6-dioxopiperidin-3-yl)-3-methyl-2-oxo-2,3-dihydro-1H-benzo[d]imidazol-5-yl)piperidine-1-carboxamido)benzyl)sulfonyl)-2,2-dimethylpiperidin-4-yl)oxy)phenyl)thiophene-2-carboxylic acid] | 200 to 1000 | 50 to 200
2 | Cn1c(=O)n(C2CCC(=O)NC2=O)c2ccc(C3CCN(C(=O)Nc4cccc(CS(=O)(=O)N5CC[C@@H](Oc6cccc(-c7sc(C(=O)O)c(OCC(=O)O)c7Cl)c6)CC5(C)C)c4)CC3)cc21 (stereo partly drawn) [Example 226, 3-(carboxymethoxy)-4-chloro-5-(3-(((4R)-1-((3-(4-(1-(2,6-dioxopiperidin-3-yl)-3-methyl-2-oxo-2,3-dihydro-1H-benzo[d]imidazol-5-yl)piperidine-1-carboxamido)benzyl)sulfonyl)-2,2-dimethylpiperidin-4-yl)oxy)phenyl)thiophene-2-carboxylic acid] | 200 to 1000 | 50 to 200
3 | CC1(C)C[C@H](Oc2cccc(-c3sc(C(=O)O)c(OCC(=O)O)c3Cl)c2)CCN1S(=O)(=O)Cc1cccc(NC(=O)N2CCC(c3ccc4c5c(cccc35)C(=O)N4C3CCC(=O)NC3=O)CC2)c1 (stereo partly drawn) [Example 227, 3-(carboxymethoxy)-4-chloro-5-(3-(((4R)-1-((3-(4-(1-(2,6-dioxopiperidin-3-yl)-2-oxo-1,2-dihydrobenzo[cd]indol-6-yl)piperidine-1-carboxamido)benzyl)sulfonyl)-2,2-dimethylpiperidin-4-yl)oxy)phenyl)thiophene-2-carboxylic acid] | 200 to 1000 | 50 to 200
4 | CC1(C)C[C@@H](Oc2cccc(-c3sc(C(=O)O)c(OCC(=O)O)c3Cl)c2)CCN1S(=O)(=O)Cc1cccc(NC(=O)N2CCC(c3ccc4c5c(cccc35)C(=O)N4C3CCC(=O)NC3=O)CC2)c1 (stereo partly drawn) [Example 228, 3-(carboxymethoxy)-4-chloro-5-(3-(((4S)-1-((3-(4-(1-(2,6-dioxopiperidin-3-yl)-2-oxo-1,2-dihydrobenzo[cd]indol-6-yl)piperidine-1-carboxamido)benzyl)sulfonyl)-2,2-dimethylpiperidin-4-yl)oxy)phenyl)thiophene-2-carboxylic acid] | 200 to 1000 | < 50
5 | O=C(O)COc1c(C(=O)O)sc(-c2cccc(N[C@H]3CCN(S(=O)(=O)Cc4cccc(NC(=O)N5CCC(c6ccc7c8c(cccc68)C(=O)N7C6CCC(=O)NC6=O)CC5)c4)C4(CC4)C3)c2)c1Cl (stereo partly drawn) [Example 229, 3-(carboxymethoxy)-4-chloro-5-(3-(((7S)-4-((3-(4-(1-(2,6-dioxopiperidin-3-yl)-2-oxo-1,2-dihydrobenzo[cd]indol-6-yl)piperidine-1-carboxamido)benzyl)sulfonyl)-4-azaspiro[2.5]octan-7-yl)amino)phenyl)thiophene-2-carboxylic acid] | 50 to 200 | < 50
6 | Cn1c(=O)n(C2CCC(=O)NC2=O)c2ccc(C3CCN(C(=O)Nc4cccc(CS(=O)(=O)N5CC[C@@H](Nc6cccc(-c7sc(C(=O)O)c(OCC(=O)O)c7Cl)c6)CC56CC6)c4)CC3)cc21 (stereo partly drawn) [Example 230, 3-(carboxymethoxy)-4-chloro-5-(3-(((7R)-4-((3-(4-(1-(2,6-dioxopiperidin-3-yl)-3-methyl-2-oxo-2,3-dihydro-1H-benzo[d]imidazol-5-yl)piperidine-1-carboxamido)benzyl)sulfonyl)-4-azaspiro[2.5]octan-7-yl)amino)phenyl)thiophene-2-carboxylic acid] | 200 to 1000 | 50 to 200
7 | O=C(O)COc1c(C(=O)O)sc(-c2cccc(N[C@@H]3CCN(S(=O)(=O)Cc4cccc(NC(=O)N5CCC(c6ccc7c8c(cccc68)C(=O)N7C6CCC(=O)NC6=O)CC5)c4)C4(CC4)C3)c2)c1Cl (stereo partly drawn) [Example 231, 3-(carboxymethoxy)-4-chloro-5-(3-(((7R)-4-((3-(4-(1-(2,6-dioxopiperidin-3-yl)-2-oxo-1,2-dihydrobenzo[cd]indol-6-yl)piperidine-1-carboxamido)benzyl)sulfonyl)-4-azaspiro[2.5]octan-7-yl)amino)phenyl)thiophene-2-carboxylic acid] | 50 to 200 | < 50
8 | Cc1nn(C2CCC(=O)NC2=O)c2ccc(C3CCN(C(=O)Nc4cccc(CS(=O)(=O)N5CC[C@H](Nc6cccc(-c7sc(C(=O)O)c(OCC(=O)O)c7Cl)c6)CC5(C)C)c4)CC3)cc12 (stereo partly drawn) [Example 233, 3-(carboxymethoxy)-4-chloro-5-[3-[[(4S)-1-[[3-[[4-[1-(2,6-dioxo-3-piperidyl)-3-methyl-indazol-5-yl]piperidine-1-carbonyl]amino]phenyl]methylsulfonyl]-2,2-dimethyl-4-piperidyl]amino]phenyl]thiophene-2-carboxylic acid] | 200 to 1000 | 200 to 1000
9 | Cn1c(=O)n(C2CCC(=O)NC2=O)c2ccc(Cc3ccc(CC(=O)Nc4cccc(CS(=O)(=O)N5CC[C@H](Nc6cccc(-c7sc(C(=O)O)c(OCC(=O)O)c7Cl)c6)CC5(C)C)c4)cc3)cc21 (stereo partly drawn) [Example 236, 3-(carboxymethoxy)-4-chloro-5-[3-[[(4S)-1-[[3-[[2-[4-[[1-(2,6-dioxo-3-piperidyl)-3-methyl-2-oxo-benzimidazol-5-yl]methyl]phenyl]acetyl]amino]phenyl]methylsulfonyl]-2,2-dimethyl-4-piperidyl]amino]phenyl]thiophene-2-carboxylic acid] | < 50 | < 50
10 | Cn1c(=O)n(C2CCC(=O)NC2=O)c2ccc(N3CCC(CCNCCNc4cccc(CS(=O)(=O)N5CC[C@H](Nc6cccc(-c7sc(C(=O)O)c(OCC(=O)O)c7Cl)c6)CC5(C)C)c4)CC3)cc21 (stereo partly drawn) [Example 237, 3-(carboxymethoxy)-4-chloro-5-[3-[[(4S)-1-[[3-[2-[2-[1-[1-(2,6-dioxo-3-piperidyl)-3-methyl-2-oxo-benzimidazol-5-yl]-4-piperidyl]ethylamino]ethylamino]phenyl]methylsulfonyl]-2,2-dimethyl-4-piperidyl]amino]phenyl]thiophene-2-carboxylic acid] | < 50 | 50 to 200
